Experimental data taken from patent US8337941B2, “Fluorescent substrates for monoamine transporters as optical false neurotransmitters” (The Trustees of Columbia University in the City of New York, priority 2006, dated 2012).
“Also recorded” adds a separate entry of the source. Read-outs that look alike come from different tables or passages of the source.

How the values were obtained:
[1] = photophysical characterization (fluorescence spectra); format: physicochemical; conditions: for λem / λex: 100 mM sodium phosphate pH 7.4, 10 uM probe; for pH dependency of fluorescence: spectra at pH 2, 5, 7.4, 9 and 12
Method: All spectra were recorded in 100 mM sodium phosphate (pH 7.4) unless otherwise indicated. Recorded λmax is that of the longest wavelength transition. Extinction coefficients were reported as the average of at least three independent preparations of the probes. Fluorescence measurements were taken on a Jobin Yvon Fluorolog fluorescence spectrofluorometer in 100 mM sodium phosphate pH 7.4 at a concentration of 10 uM in probe, excited at their respective λmax.

chromaffin cells [2] = experiment: TIRF assay of stimulation-dependent exocytosis from FFN 511-loaded chromaffin granules; format: cell-based, mouse; conditions: single LDCV
Text: Total internal reflectance fluorescence microscopy (TIRF) was used as a functional assay for the ability of FFN 511-loaded chromaffin granules to undergo stimulation-dependent exocytosis. TIRF allows for fluorescence excitation in a narrow −100 nm thick layer of the cell immediately adjacent to the surface.

chromaffin cells [3] = experiment: probe uptake and labeling in chromaffin cells by fluorescence microscopy; format: cell-based, mouse
Text: Chromaffin cells are an excellent model system as the cytoplasm of these cells in culture is almost completely filled with large dense core vesicles that accumulate catecholamines by VMAT.
If necessary, metabolism of the probes by MAO (present in mitochondria) may be reduced by the addition of a suitable inhibitor (deprenyl for MAO B, clorgyline for MAO A) or by simply methylating the α-position of the amine (10, 14).
Catecholamines are stored in chromaffin large dense core vesicles (LDCVs), which contain vesicular monoamine transporter 1 (VMAT1). Although VMAT 1 and 2 are distinct proteins, they share many functional characteristics.

VMAT2 = target: T1, VMAT2 (Homo sapiens, UniProt Q05940); experiment: in vitro competitive binding assay, membranes from HEK cells stably transfected with VMAT2; conditions: inhibition of binding to membranes from HEK cells stably transfected with VMAT2; read-out: apparent IC50
T1 construct: expressed in transfected cells; host or cells: HEK cells, stably transfected; membranes
T1 sequence (Q05940 whole entry, species assumed): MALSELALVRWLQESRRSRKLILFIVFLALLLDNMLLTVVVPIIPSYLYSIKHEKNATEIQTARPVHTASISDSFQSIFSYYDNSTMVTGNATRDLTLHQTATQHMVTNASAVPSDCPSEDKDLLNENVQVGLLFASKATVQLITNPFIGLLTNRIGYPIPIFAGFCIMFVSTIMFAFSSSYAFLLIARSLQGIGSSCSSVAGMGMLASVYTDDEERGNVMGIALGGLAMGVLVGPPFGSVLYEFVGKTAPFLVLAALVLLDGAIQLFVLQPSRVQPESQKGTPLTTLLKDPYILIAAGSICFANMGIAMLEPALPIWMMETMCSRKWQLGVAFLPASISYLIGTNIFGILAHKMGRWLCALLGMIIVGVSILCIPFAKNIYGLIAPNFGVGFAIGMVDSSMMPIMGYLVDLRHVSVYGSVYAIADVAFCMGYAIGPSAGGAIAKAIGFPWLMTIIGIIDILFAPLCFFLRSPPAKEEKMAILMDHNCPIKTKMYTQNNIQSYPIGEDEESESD
Text: On the basis of initial encouraging results, compound FFN 511 was submitted to rigorous investigation, from which it emerged as a promising imaging probe. Catecholamines are stored in chromaffin large dense core vesicles (LDCVs), which contain vesicular monoamine transporter 1 (VMAT1). Although VMAT 1 and 2 are distinct proteins, they share many functional characteristics.

DA terminals = experiment: labeling and destaining of DA terminals in live striatal acute slice; format: cell-based, mouse
Text: Distribution of FFN 511 was compared to DA neurons using striatal slices prepared from a transgenic mouse expressing GFP under the control of tyrosine hydroxylase (TH) promoter (36).
As FFN 511 was applied in a “pulse-chase” pattern, with the extracellular probe washed out following accumulation in the terminals, these experiments essentially measure the amount of DA remaining in the terminal and the released transmitter. The probability of release from a given terminal under a particular stimulus condition is simply the fractional destaining, i.e., Pterminal=Ft/(Ft0−Fbkgnd) Pterminal=1−(Ft−Fbkg)/(Ft0−Fbkg),
where Ft0 is the initial fluorescent intensity and Fbkgnd is the label remaining after maximal stimulus is applied.

evoked DA release = evoked DA release in slice measured by cyclic voltammetry; format: cell-based, mouse
Text: FFN 511 was destained by neuronal stimulation in a calcium-dependent manner under conditions identical to those that release DA as measured by simultaneous cyclic voltammetry. (FFN 511 is not oxidized and not measured by cyclic voltammetry).

[4] = 4 Hz stimulation, in the presence of calcium

CCN(CC)c1ccc2c(C)cc(=O)oc2c1 [Coumarin 1, reference compound]
behaviour of fluorescence in water / aqueous buffer solution [1]: drops in water | λem [1]: 470 nm | λex [1]: 384 nm

CN(C)c1ccc2cc3ccc(N(C)C)cc3nc2c1 [acridine orange, reference compound]
behaviour of fluorescence in water / aqueous buffer solution [1]: drops in water

NCCc1cc(=O)oc2c3c4c(cc12)CCCN4CCC3 [Probe 511, 8-(2-Amino-ethyl)-2,3,5,6-tetrahydro-1H,4H-11-oxa-3a-aza-benzo[de]anthracen-10-one]
release from LDCVs on high potassium stimulation (chromaffin cells [2]): released by exocytosis | labeling of chromaffin cells (chromaffin cells [3]): selectively label healthy chromaffin cells | duration of linear increase of intracellular probe concentration (fluorescence) (chromaffin cells [3]; 500 nM in physiological saline solution): at least 60 minutes | uptake into chromaffin vesicles (chromaffin cells [3]; At 50 nM): actively taken up into chromaffin vesicles | time window in which uptake is linear (chromaffin cells [3]; FFN 511 500 nM, single chromaffin cells): 10 to 60 min | accumulation in acidic compartments of the cells (chromaffin cells [3]; abolished by chloroquine exposure): accumulates in acidic compartments | fluorescence after addition of lipophilic weak base chloroquine (chromaffin cells [3]; chloroquine 100 μM): completely abolished | staining of cell nuclei (chromaffin cells [3]; chromaffin cells): nuclear exclusion | effect of VMAT inhibitor tetrabenazine on probe uptake (chromaffin cells [3]; chromaffin cells, TBZ 10 uM (FIG. 20), p=0.001 vs control): abolished by Tetrabenazine; also recorded: inhibited by tetrabenazene | IC50 (VMAT2): 2500 nM | emission maximum ([1]; compared with GFP): ~500 nm | pH dependency of fluorescence [1]: increased fluorescence seen at alkaline pH values | number of action potentials to release about 50% of the terminal content (DA terminals; [4]): 640 action potentials | time to release about 50% of the terminal content (DA terminals; [4]): ~160 s | fluorescent labeling in corpus callosum (DA terminals; acute slices, mouse CNS): no labeling | fluorescent labeling in cortex (DA terminals; acute slices, mouse CNS): fainter fluorescence with patchy distribution | fluorescent labeling in striatum (DA terminals; acute slices, mouse CNS): clearly observed in presynaptic terminals | FFN 511 labeling after unilateral 6-OHDA lesion of DA neurons (DA terminals; injected hemisphere, slices 21 days post-lesion): nearly completely abolished | calcium dependence of stimulated destaining (DA terminals; neuronal stimulation): completely dependent on the presence of calcium | effect on evoked DA release at higher concentrations (evoked DA release): reduced evoked DA release | effect on evoked DA release at levels sufficient to label the terminals (evoked DA release): did not alter evoked DA release

NCCc1ccc(O)c(O)c1 [DA, dopamine, reference compound]
IC50 (VMAT2): ~1000 nM

CC(N)Cc1ccccc1 (stereo not shown) [amphetamine, reference compound]
loss of 511 fluorescence (DA terminals; 10 μM, 10 min, striatal slice): ~50%

O=C(O)C(F)(F)F.O=c1cc(O)c2ccc(N3CCNCC3)cc2o1 [Probe 484, 4-(4—Hydroxy-coumarin-7-yl)-piperazin-1-ium trifluoroacetate]
λem [1]: 385 nm | λex [1]: 319 nm | pH dependency of fluorescence ([1]; trifluoroacetate): possess pH-dependency; also recorded: shift in fluorescence emission maxima seen with changing pH

NCCNc1ccc2ccc(=O)oc2c1 [Probe 505, 7-(2-Amino-ethylamino)-coumarin]
λem [1]: 455 nm | λex [1]: 361 nm

COC(=O)[C@H]1[C@H]2C[C@@H]3c4[nH]c5cc(OC)ccc5c4CCN3C[C@H]2C[C@@H](OC(=O)c2cc(OC)c(OC)c(OC)c2)[C@@H]1OC [reserpine, reference compound]
inhibition of 511 labeling by VMAT2 inhibitors (DA terminals): strongly inhibited

COc1cc2c(cc1OC)C1CC(=O)C(CC(C)C)CN1CC2 (stereo not shown) [tetrabenazine, reference compound]
inhibition of 511 labeling by VMAT2 inhibitors (DA terminals; striatal slice, reserpine 10 μM, 2 hours (FIG. 36B)): strongly inhibited
